Consider two molecules from patent US20240108760A1 (priority 2021, published 2024).

“Also recorded” adds a separate entry of the source. Read-outs that look alike come from different tables or passages of the source.

For experiment [1], the target named is T1, CODA71 chimeric receptors (Homo sapiens, UniProt P36544, F159M/H163T/I152M/R155K/V154L/W156N/Y151P). Kind of experiment: Spontaneous seizures in the intrahippocampal kainic acid focal epilepsy model (chronic EEG). In kind it is in vivo, C57BL/6 mice. The note with it: for focal seizures (overall conclusion): CODA71 delivered by AAV9 to hippocampus, activated by TC-5619. The method, then:
(§1) Changes to evoked hippocampal seizure thresholds were measured in response to perforant pathway electrical stimulation. For spontaneous seizure experiments, mice were unilaterally injected intrahippocampally with kainic acid (KA) to induce epilepsy, 3 weeks prior to AAV9 injection and EEG electrode implantation.
In one set of animal studies, seven weeks prior to testing of neuron activities, kainic acid was unilaterally injected into CAT to evoke spontaneous seizures. Five weeks later, CODA71 receptor were bilaterally expressed in CA1/DG, along with bipolar electrode placement in CAT for recording EEG (FIG. 32). Spontaneous seizures were tracked with chronic EEG recordings. On alternating days, mice received two i.p. injections of either 100 mg/kg TC-5619 or saline, 2 hrs apart.

Experiment [2] deals with T1, CODA71 chimeric receptors. Kind of experiment: Evoked hippocampal seizure threshold, perforant pathway electrical stimulation. It is filed as in vivo, C57BL/6 mice. The note with it: for increase of minimal threshold potential to evoke electrographic seizures: i.p. TC-5619 (100 mg/kg). The procedure:
as §1
In one set of animal studies, two weeks prior to seizure threshold testing, CODA71 were bilaterally-expressed in CA1/DG, along with bipolar electrode placement in CAT and the perforant pathway. 45 minutes prior to threshold testing, mice received 100 mg/kg TC-5619 or saline via i.p. injection. Electrical stimulation (1 sec at 60 Hz, 1 ms pulses) of increasing amplitude was delivered every 100 seconds, until electrographic seizures were evoked (FIG. 29).
Here evoked seizure thresholds were determined by monitoring responses to increasing amplitude electrical stimulation and as the minimal stimulation amplitude required to evoke sustained epileptic form activity in each trial.

In experiment [3] the target is T1, CODA71 chimeric receptors. As to the kind of experiment: Whole cell current clamp recording of CA1 neurons in acute slices, TC-5619 bath application. In kind it is cell-based, C57BL/6 mice.
Experiment [4] has as its system hippocampal neurons. As to the kind of experiment: Hippocampal expression of CODA71 receptor after AAV9 delivery. In kind it is in vivo, C57BL/6 mice. The note with it: hSyn promoter.
Setting [5] is: scrambled control vector injected mice, TC-5619.
The mark [6] stands for this setting: CODA71 vector injected mice, 100 mg/kg TC-5619 i.p. 45 minutes prior.

With `O=C(N[C@@H]1C2CCN(CC2)[C@H]1Cc1cccnc1)c1cc2ccccc2o1` [TC-5619], the “focal seizures (overall conclusion)” value in experiment [1] is reported as “ameliorate spontaneous focal seizures”. The electrographic seizure duration result in experiment [1] (CODA71 vector mice, KA epileptic, i.p. TC-5619 100 mg/kg, p=0.0011, 100 mg/kg) is “significantly reduced; also recorded: substantial decrease in seizure duration”. In experiment [1] (CODA71 vector mice, KA epileptic, i.p. TC-5619 100 mg/kg, p=0.0325, 100 mg/kg), the “electrographic / spontaneous seizure frequency” value is on record as “significantly reduced; also recorded: dropped dramatically; also recorded: prolonged decrease in seizure frequency”. Also, the “spontaneous seizure frequency and duration” value in experiment [1] (setting [5]) was “little change; also recorded: No such effect was observed”. The “increase of minimal threshold potential to evoke electrographic seizures” value is 139±48.0% in experiment [2] (CODA71 animals, p=0.0166 vs scrambled controls) and −10±13.2% in experiment [2] (scrambled controls). For the same molecule, the “electrically-evoked seizure threshold” value in experiment [2] (setting [6]) is listed as “increased more”; in experiment [2] (setting [5]) it was “did not change seizure thresholds”. The “neuronal / CA1 action potential firing, excitability” value in experiment [3] is on record as “suppressed CA1 action potential firing”. In experiment [3], this molecule returned a rheobase of 368±39.7 pA. Moreover, the “neuron property change in presence of bungarotoxin (BTX)” value in experiment [3] (CODA71 vector vs scrambled control vector, α7-nAChR ligand binding domain inhibited by BTX) is listed as “little property change”. The “intrinsic properties of whole cell recorded neurons (RMP, input resistance, rheobase, AP count)” value in experiment [3] (after 1 minute application of 150 nM TC-5619) is “rapidly changed”.

B1: CODA71: chimeric LGIC: human α7-nAChR ligand binding domain with GlyRα1 Cys-loop, fused to human GlyRα1 ion pore domain; SEQ ID NO: 33 (protein)
chain: MRCSPGGVWLALAASLLHVSLQGEFQRKLYKELVKNYNPLERPVANDSQPLTVYFSLSLLQIMDVDEKNQVLTTNIWLQMSWTDHYLQWNVSEYPGVKTVRFPDGQIWKPDILLYNSADERFDATFHTNVLVNSSGHCQYLPPGIFKSSCPMDLKNFPMDVQTCKLKFGSWSYGGWSLDLQMQEADISGYIPNGEWDLVGIPGKRSERFYECCKEPYPDVTFTVTMRRRMGYYLIQMYIPSLLIVILSWISFWINMDAAPARVGLGITTVLTMTTQSSGSRASLPKVSYVKAIDIWMAVCLLFVFSALLEYAAVNFVSRQHKELLRFRRKRRHHKSPMLNLFQEDEAGEGRFNFSAYGMGPACLQAKDGISVKGANNSNTTNPPPAPSKSPEEMRKLFIQRAKKIDKISRIGFPMAFLIFNMFYWIIYKIVRREDVHNQ
As for B1, the “focal seizures (overall conclusion)” value in experiment [1] is “effectively suppress focal seizure; also recorded: ameliorate spontaneous focal seizures; also recorded: prevented both evoked and spontaneous focal seizures”. The “electrically-evoked seizure threshold” value in experiment [2] (setting [6]) was “increased”. Further, the “neuronal / CA1 action potential firing, excitability” value in experiment [3] (acute slices, CODA71 transduced, 1-minute bath application of 150 nM TC-5619) is listed as “effectively suppress neuronal firing; also recorded: successfully suppressed hippocampal neuronal excitability”. For the same molecule, the “expression of CODA71 receptor in hippocampal / CA1 neurons” value in experiment [4] is on record as “expressed well; also recorded: effective expression”.
